Read-outs that look alike come from different tables or passages of the source.
How the values were obtained:
[1] = test system: MDA-MB-231 cancer cell line; assay: Cell growth assay (WST-8); format: cell-based; settings: Homo sapiens, MDA-MB-231, 96 h; WST-8, 4 days; read-out: Inhibition of cell growth IC50, MDA-MB-231 cancer cell line
Procedure, shortened: (§1)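 Cells (3000–4000/well) grown 4 days with varied compound concentrations, then WST-8 dye added for 1–3 h and absorbance read at 450 nm. Growth inhibition expressed as sample-to-control absorbance ratio.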

[2] = test system: MDA-MB-468 cancer cell line; assay: Cell growth assay (WST-8); format: cell-based; settings: Homo sapiens, MDA-MB-468, 96 h; WST-8, 4 days; read-out: Inhibition of cell growth IC50, MDA-MB-468 cancer cell line
Procedure, shortened: as §1

STAT3 protein = target: T1, STAT3 protein (Homo sapiens, UniProt P40763); assay: In vitro competitive STAT3 binding assay (fluorescence polarization)
T1 construct: human STAT3 protein (residues 122-722) fused to His-tag; His-tag
T1 sequence (P40763 122-722): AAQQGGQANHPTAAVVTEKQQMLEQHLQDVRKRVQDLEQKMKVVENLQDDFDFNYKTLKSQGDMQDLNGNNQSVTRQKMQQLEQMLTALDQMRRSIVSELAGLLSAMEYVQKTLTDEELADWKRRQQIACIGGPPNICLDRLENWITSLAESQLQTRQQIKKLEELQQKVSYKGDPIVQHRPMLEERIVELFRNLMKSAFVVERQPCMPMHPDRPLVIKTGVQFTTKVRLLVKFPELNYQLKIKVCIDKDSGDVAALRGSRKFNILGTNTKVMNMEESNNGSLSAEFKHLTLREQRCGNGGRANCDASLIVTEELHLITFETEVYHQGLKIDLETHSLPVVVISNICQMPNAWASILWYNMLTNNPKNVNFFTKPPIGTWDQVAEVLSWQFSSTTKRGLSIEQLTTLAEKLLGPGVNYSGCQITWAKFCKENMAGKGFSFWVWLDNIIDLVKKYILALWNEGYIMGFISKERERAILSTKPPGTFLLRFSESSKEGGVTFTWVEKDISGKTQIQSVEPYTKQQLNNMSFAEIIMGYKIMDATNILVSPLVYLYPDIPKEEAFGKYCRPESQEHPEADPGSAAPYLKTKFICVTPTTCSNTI
Procedure, shortened: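 FP competition: His-tagged human STAT3 (122-722), 150 nM, with 5 nM 5-Fam-labelled pYLPQTV phosphopeptide tracer (STT2) and titrated inhibitor, read after 2-3 h. IC50 = concentration displacing 50% of tracer, by nonlinear least-squares fit.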

[3] = FP competitive binding, fluorescently tagged STT2 peptide tracer, read-out: Binding affinities to STAT3 IC50

| Compound | IC50 [1] | IC50 [2] | IC50 (STAT3 protein) | IC50 (STAT3 protein; [3]) |
| --- | --- | --- | --- | --- |
| O=C(N[C@@H](Cc1ccc(OP(=O)(O)O)cc1)C(=O)N[C@H]1CCCC[C@H]2CC[C@@H](C(=O)N[C@@H](Cc3c[nH]cn3)C(=O)NCc3ccccc3)N2C1=O)OCc1ccccc1 [Example 22] | > 50 µM | > 100 µM | < 10 µM |  |
| CN[C@@H](Cc1ccc(OP(=O)(O)O)cc1)C(=O)N[C@H]1CCCCC2CC[C@@H](C(=O)N[C@@H](CCC(N)=O)C(=O)NCc3ccccc3)N2C1=O (stereo in doubt) [Example 40] | > 30 µM | > 100 µM |  | < 1 µM |
| C[C@H](NC(=O)[C@@H]1CC[C@@H]2CCCC[C@H](NC(=O)[C@@H](N)Cc3ccc(OC(C(=O)O)C(=O)O)cc3)C(=O)N21)C(=O)NCc1ccccc1 [Example 10] | > 50 µM | > 100 µM |  | > 100 µM |
| CN[C@@H](Cc1ccc(OC(C(=O)O)C(=O)O)cc1)C(=O)N[C@H]1CCCCC2CC[C@@H](C(=O)N[C@@H](Cc3c[nH]cn3)C(=O)NCc3ccccc3)N2C1=O (stereo partly drawn) | > 100 µM | > 100 µM |  | > 10 µM |
| CCCCCCCCCCCCCCCCN1CCN(CCC(=O)N[C@@H](Cc2ccc(OP(=O)(O)O)cc2)C(=O)N[C@H]2CCCCC3CC[C@@H](C(=O)NCCc4cnc[nH]4)N3C2=O)CC1 (stereo partly drawn) | < 10 µM | < 10 µM |  | < 10 µM |
| CNC(=O)[C@H](CCCN)NC(=O)[C@@H]1CC[C@@H]2CCCC[C@H](NC(=O)[C@H](Cc3ccc(OP(=O)(O)O)cc3)NC(=O)OCc3ccccc3)C(=O)N21 [Example 21] | > 100 µM | > 100 µM | < 10 µM |  |
| CCCCCCCCCCCCCCCC(=O)N[C@H](Cc1ccc(OCP(=O)(O)O)cc1)C(=O)N[C@H]1CCCCC2CC[C@@H](C(=O)N[C@@H](CCC(N)=O)C(=O)NCc3ccccc3)N2C1=O (stereo partly drawn) | < 100 µM | < 50 µM | < 5 µM |  |
| CCOC(=O)C(Oc1ccc(C[C@H](NC(C)=O)C(=O)N[C@H]2CCCCC3CC[C@@H](C(=O)N[C@@H](CCC(N)=O)C(=O)NCc4ccccc4)N3C2=O)cc1)C(=O)OCC (stereo partly drawn) | > 30 µM | > 100 µM |  | > 100 µM |
| CC(=O)N[C@@H](Cc1ccc(CP(=O)(O)O)cc1)C(=O)N[C@H]1CCCC[C@H]2CC[C@@H](C(=O)N[C@@H](CCC(N)=O)C(=O)NCc3ccccc3)N2C1=O [Example 30] | > 100 µM | > 100 µM | < 30 µM |  |
| CCCCCCCCCCCCCCCCCCCCNC(=O)[C@H](CCC(N)=O)NC(=O)[C@@H]1CCC2CCCC[C@H](NC(=O)[C@H](Cc3ccc(OP(=O)(O)O)cc3)NC)C(=O)N21 (stereo partly drawn) | < 30 µM | < 30 µM |  | < 5 µM |
| CCCCCCCCCCCCCCCCN1CCN(CCC(=O)N[C@@H](Cc2ccc(OP(=O)(O)O)cc2)C(=O)N[C@H]2CCCCC3CC[C@@H](C(=O)NCCc4cn[nH]c4)N3C2=O)CC1 (stereo partly drawn) | < 20 µM | < 20 µM |  | < 5 µM |
| N[C@@H](Cc1ccc(OP(=O)(O)O)cc1)C(=O)N[C@H]1CCCCC2CC[C@@H](C(=O)N[C@@H](CCC(=O)NC(c3ccccc3)(c3ccccc3)c3ccccc3)C(=O)NCc3ccccc3)N2C1=O (stereo partly drawn) | < 10 µM | < 10 µM |  | < 10 µM |
| CCCNC(=O)[C@@H]1CC[C@@H]2CCCC[C@H](NC(=O)[C@H](Cc3ccc(OP(=O)(O)O)cc3)NC(=O)OCc3ccccc3)C(=O)N21 [Example 15] | > 30 µM | > 100 µM |  | < 30 µM |
